Measured values taken from ChEMBL document CHEMBL3639247, “Pyrazole compounds as CRTH2 antagonists” (2014).

Molecular target: T1, Prostaglandin D2 receptor 2 (Homo sapiens, UniProt Q9Y5Y4)
T1 sequence (Q9Y5Y4 whole entry): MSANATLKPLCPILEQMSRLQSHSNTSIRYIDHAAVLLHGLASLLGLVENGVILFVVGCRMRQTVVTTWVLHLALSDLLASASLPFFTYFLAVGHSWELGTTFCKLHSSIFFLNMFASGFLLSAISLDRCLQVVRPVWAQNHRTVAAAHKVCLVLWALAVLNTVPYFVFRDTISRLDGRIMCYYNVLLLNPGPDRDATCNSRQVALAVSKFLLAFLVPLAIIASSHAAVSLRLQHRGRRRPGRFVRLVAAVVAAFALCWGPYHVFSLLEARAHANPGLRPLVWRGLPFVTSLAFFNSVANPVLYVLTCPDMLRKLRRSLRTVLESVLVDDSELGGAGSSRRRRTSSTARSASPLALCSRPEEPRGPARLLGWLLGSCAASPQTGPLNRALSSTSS
Experiment: Radioligand Binding Assay: The CRTH2 receptor binding assay is performed in a scintillation proximity assay (SPA) format with the radioligand [3H]-PGD2 (Perkin Elmer, NET616000MC). CHO-K1-hCRTH2 cell membranes are again homogenized by passing through a single use needle (Terumo, 23Gx1'') and diluted in SPA incubation buffer in suitable concentrations (0.5-10 ug protein/well). The SPA assay is set up in 96 well microtiter plates (Perkin Elmer, CatNo. 6005040) in SPA incubation buffer with a final volume of 200 ul per well and final concentration of 50 mM Tris-HCl, 10 mM MgCl2, 150 mM NaCl, 1 mM EDTA pH 7.4, 0.1% bovine serum albumin). The SPA assay mixture contains 60 ul of the membrane suspension, 80 ul of Wheat Germ Agglutinin coated PVT beads (GE Healthcare, RPNQ-0001, 0.3 mg/well), 40 ul of [3H]-PGD2 diluted in SPA buffer to a final concentration of 1 nM (50 000 dpm) and 20 ul of the test compound (dissolved in dimethylsulfoxid).

CCc1nn(Cc2ccc(NC(=O)C3CCC(C(F)(F)F)CC3)cc2)c(CC)c1CC(=O)O (stereo unspecified)
Ki: 23.9 nM
